Key:
HRV2 2A Proteinase [1] = target: T1, HRV2 2A Proteinase (Human rhinovirus 2, UniProt P04936); assay: In vitro translation of globin RNA in HeLa cell extract pretreated with 2A proteinase, with inhibitor; format: biochemical; conditions: 2A Proteinase preincubated with 0,5 mM Elastatinal, Fig. 16C, Spur 4
T1 construct: allen 142 Aminosäuren der 2A Proteinase von HRV2 und 2 Stoppcodons; N-terminal leader: first 14 aa of T7 gene 10 protein + last 7 aa of HRV2 VP1 (removed by self-cleavage) (N, cleaved yes); made in house; host or cells: E. coli BL21(DE3)LysS, plasmid pET/2A; 30 % ammonium sulfate precipitate
Method: Zur Herstellung eines HeLa-Zellextraktes wurde eine 1 l HeLa-Suspensionkultur (z.B. HeLa S3 (03-157, FLOWLABS) oder HeLa Ohio (03-147, FLOWLABS)), (ca. 4 x 10⁵ Zellen/ml) in halb-logarithmischer Phase abzentrifugiert (20 min, 1200 rpm), mit isotonischem Puffer gewaschen, durch mehrmaliges "Douncen" (40- bis 50-mal) aufgebrochen und die Zelltrümmer durch Zentrifugation (3 min, 3000 rpm) entfernt. Der Überstand wurde erneut zentrifugiert (20 min, 10000 rpm), das Pellet verworfen und der neue Überstand nochmals zentrifugiert (20 min, 13000 rpm). Der erhaltene Überstand wurde dann bei 4°C gegen Dialysepuffer (zweimal je 400 ml) dialysiert und nochmals 20 Minuten bei 13000 rpm zentrifugiert (20 min, 13000 rpm). Der Überstand (S 20-Extrakt) wurde portioniert und in flüssigem Stickstoff gelagert. isotonischer Puffer: 10 mM Hepes, pH 7,9, 140 mM KCl, 1,5 mM MgCl₂, 1 mM EDTA, 0,5 mM PMSF. Dialysepuffer: 0,1 M KCl, 20 % Glycerin, 20 mM Hepes, pH 7,9, 0,2 mM EDTA, 0,5 mM DTT, 0,5 mM PMSF.
1 ml Portionen des S 20-Extraktes wurden dann mit Micrococcal Nuclease (Boehringer Mannheim; Nr. 107921) behandelt, um die endogene RNA abzubauen: Zunächst wurde der Extrakt zentrifugiert (15 min, 4°C, 13000 rpm) und das Pellet verworfen. Zum Überstand (1 ml) wurden zugegeben: 1,2 µl 1 M CaCl₂ 1,5 µl 1 M MgOAc 16,0 µl Micrococcal Nuclease (15 U/µl). […]

HRV2 2A Proteinase [2] = target: T1, HRV2 2A Proteinase; assay: In vitro translation of capped pLink-2C RNA in rabbit reticulocyte lysate pretreated with 2A preparation, with inhibitor; format: biochemical; conditions: 2A Präparation treated with 0,5 mM Elastatinal, Figur 8B, Spur 8
Method: In vitro Transkription dieser Plasmide nach Linearisierung mit BamHI mittels T7 RNA Polymerase wurde wie beschrieben (Duechler et al. (1989), loc. cit.) durchgeführt. Für die Synthese von RNA mit Cap-Struktur wird dem Transkriptionsansatz ⁷mGpppG und GTP zugesetzt. Zum Beispiel kann der von Duechler et al. (1989, loc. cit.) beschriebene Reaktionsansatz 1 mM 7MeGppG und 250 µm GTP enthalten. Am Ende der Reaktionszeit wurde die DNA durch Zugabe von DNase I (RNAse-frei, Boehringer Mannheim) verdaut, die Proteine durch Phenolextraktion entfernt, und die RNA nach Zugabe von einem Drittel Volumen 8 M Ammoniumacetat mit Ethanol gefällt. Nach nochmaliger Fällung mit Ethanol wurde die RNA anschließend in Wasser aufgenommen und ein Aliquot durch Agarosegelelektrophorese auf Qualität überprüft. Der Laufpuffer enthielt 1% SDS. Für die in vitro Translation wurde jeweils 1 µg dieser RNAs eingesetzt. Die Reaktion enthielt in 20 µl 90 mM KCl, 0.3 mM MgCl₂, 10 mM Kreatinphosphat, 2 µl ³⁵S-Trans-Label (ICN; 10 µCi/µl, 1000 Ci/mmol) und 11,5 µl Kaninchenreticulocytenlysat, das mit Micrococcal Nuclease (Sigma) behandelt worden war. Das Kaninchenreticulocytenlysat wurde nach der Methode von Jackson, R. und Hunt, T. (Meth. Enzymol. (1983) 96, 50 - 74) durch Behandlung mit Micrococcal Nuclease hergestellt. […]

2A = 2A (Human rhinovirus 2, UniProt P04936); conditions: Sommergruber et al. (1992); read-out: IC50 für 2A; cited from earlier work
HRV2 2A = target: T2, HRV2 2A (Human rhinovirus 2, UniProt P04936); assay: Competition assay of peptide substrates against reference peptide P8-P8' (HPLC analysis of cleavage); format: biochemical; conditions: for Spaltbarkeit durch HRV2 2A (result in words): competition assay with P8-P8'
T2 construct: wurden mit einer reifen, rekombinanten HRV2 2A durchgeführt; made in house
From the text: Die Substratspezifitätsstudien, wie auch alle anderen Studien in diesem Beispiel, wurden mit einer reifen, rekombinanten HRV2 2A durchgeführt. Mittels Kompetitionsstudien unter Verwendung eines 16-mer Wildtyp-Peptidsubstrats (P8-P8') als Referenzpeptid wurde der jeweilige (Vmax/Km)rel-Wert für das mutierte Peptidsubstrat ermittelt. Das Peptid P8-P8' ([…]* […] (SEQ ID NO. 23)) entspricht der nativen Spaltstelle von HRV2 2A im Polyprotein ([…] ist der C-terminale Teil von VP1 und […] der N-Terminus von HRV2 2A). Dieses Peptid wird von der rekombinanten HRV2 2A intermolekular korrekt zwischen Ala und Gly prozessiert (Km-Wert: (5,4±0,02) x 10⁻⁴ Mol/l; Sommergruber et al., loc cit). […] Die Kompetitionsreaktion wurde durch Zugabe von 1 µl einer reinen (ca. 95%) HRV2 2A Stammlösung (2mg/ml in Puffer A + 0,05% NaN₃) gestartet. 50 µl Proben wurden jeweils nach 30, 60, 90, 120 und 150 sek bzw. nach 2, 4, 8, 16 und 32 min entnommen, in ein ULTRAFREE-MC Röhrchen (10,000 NMWL; Fa. Millipore) mit jeweils 250 µl 0,5 M HClO₄ transferriert (Reaktionsstop), gemischt und auf Eis gestellt (mindestens 15 min). Anschließend wurde die Lösung 30 min bei 14K, 4°C in einer SIGMA Eppendorfzentrifuge zentrifugiert. Das Filtrat wurde direkt zur HPLC Analyse eingesetzt. Peptidsubstrate und deren Spaltprodukte wurden entweder auf einem Kurzgradienten (5,5 min; 5,4% B/min; Merck Supersphere C18 Säule, 4x50 mm) oder einem Langgradienten (34,5 min; 0,8% B/min; Bakerbond WP C18 Säule, 4,6x250mm) aufgetrennt. Die Messung der UV Absorption wurde bei 210 nm und 280 nm durchgeführt. Die Spaltprodukte wurden mittels Komigration von Referenzpepetiden und/oder durch Proteinsequenzierung (Hunkapiller und Hood (1983) Science 219, 650-659) identifiziert. Der prozentuelle Anteil der Spaltung für jeden Zeitpunkt wurde durch Vergleich der Flächen der C- und N-terminalen Produktpeaks mit dem des verbliebenen ungespaltenen Peptidsubstrats ermittelt. Zusätzlich wurden die Daten graphisch ausgewertet, um etwaige Abweichungen vom klassischen Kurvenverlauf zu erkennen (z.B. sigmoide Kurve, allosterische Effekte etc.). Bei keinem der in Abb. 23 angeführten mutierten Peptidsubstrate konnte solch ein Effekt beobachtet werden. Für jedes Substrat und dessen Spaltprodukte war die Gesamtfläche der Peaks unabhängig vom Maß der Spaltung (< 5%). Für zwei Peptidsubstrate 1 und 2 ergeben sich in einem Kompetitionsassay nach Pallai et al. (Pallai et al. (1989) J. Biol. Chem. 264, 9738-9741) die (Vmax/Km)rel-Werte: (Vmax/Km)1/(Vmax/Km)2 = log(1-F1)/log(1-F2) [formula] wobei F der Anteil des umgesetzten Substrats ist. In allen Kompetitionsstudien waren Substrat- und Produktpeaks entweder auf dem langen oder dem kurzen bzw. auf beiden Gradienten über HPLC-Analyse voneinander trennbar. […]

host cell shut-off = assay: Inhibition of host cell shut-off (statement, test not described); conditions: statement only, no data given

T2 sequence (P04936 851-992): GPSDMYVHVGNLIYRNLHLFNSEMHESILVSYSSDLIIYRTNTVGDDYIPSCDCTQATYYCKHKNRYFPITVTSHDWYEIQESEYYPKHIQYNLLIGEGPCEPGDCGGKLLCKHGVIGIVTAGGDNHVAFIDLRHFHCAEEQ
T1 sequence (P04936 851-992): as above
2A, sequence (P04936 851-992): as above

## CC(C)C[C@H](NC(=O)N[C@H](C(=O)N[C@@H](CCC(N)=O)C(=O)N[C@@H](C)C=O)[C@@H]1CCNC(=N)N1)C(=O)O [Elastatinal]
HRV2 2A Proteinase [1]
  Effect on 2A action on translation of Globin RNA: die 2A-Wirkung auf die Translation wird inhibiert
HRV2 2A Proteinase [2]
  Effect on 2A-induced change of translation pattern: die Inhibition von 2A verhindert die Änderung der Translationseigenschaften
2A
  IC50: 50 µM

## p220-3: 16-mer Oligopeptid, Position im p220-Molekül 737-752 (SEQ ID NO. 124) (SSKRTAADKDRGEEDA; UniProt Q04637 737-752, looked up, fragment)
HRV2 2A
  Competitive inhibition of HRV2 2A: wirken als kompetitive Inhibitoren
  Spaltbarkeit durch HRV2 2A (result in words): von HRV2 2A prozessiert werden können
Host cell shut-off
  Inhibition of host cell shut-off: in der Lage, den "host cell shut-off" zu inhibieren

## p220-4: 16-mer Oligopeptid, Position im p220-Molekül 476-491 (SEQ ID NO. 125) (SEKGGEELLPPESTPI; UniProt Q04637 476-491, looked up, fragment)
HRV2 2A
  Competitive inhibition of HRV2 2A: wirken als kompetitive Inhibitoren
  Spaltbarkeit durch HRV2 2A (result in words): von HRV2 2A prozessiert werden können
Host cell shut-off
  Inhibition of host cell shut-off: in der Lage, den "host cell shut-off" zu inhibieren
